# Data taken from patent US9856511B2, “Protease deubiquitinating inhibitor screening” (priority 2011, dated 2018).
# Columns and labels:
# [1] = tested on: isogenic clones of HCT116 colon cancer cells; experiment: Apoptosis in isogenic HCT116 clones, caspase cleaved cytokeratin-18 ELISA; assay type: cell-based
# Description: The increase in sub G1 DNA content is associated with (i) activation of the apoptosis mediator caspase-3 and (ii) with cleavage of the caspase substrates poly-ADP ribose polymerase (PARP) and cytokeratin-18. […] Apoptosis induction by bortezomib is dependent on p53 and inhibited by overexpression of the Bcl-2 protein (16,17).
# For determination of apoptosis parental HCT-116 p53+/+ cells were treated with the increasing doses of bortezomib or b-AP15 for 24 h. […] HCT-116 cells were seeded in 96-well microtiter plates at 10,000 cells per well and incubated overnight. Cells were treated with indicated drug for 24 h. At the end of the incubation period, NP40 was added to the tissue culture medium to 0.1% and 25 μl of the content of each well was assayed using the M30-Apoptosense® ELISA as previously described (43). Cell viability was determined by measuring acid phosphatase activity or using the FMCA method (44). For the acid phosphatase activity cells were seeded at 5000 cells per well in 96-well culture plates and incubated for 12 h at 37° C. Compounds were added to the cells in growth media and incubated for 72 h at 37° C. Cells were washed with 200 μl warm PBS. […] Absorbance was measured at 405 nm.
# b-AP15 inhibits degradation of ubiquitin-tagged YFP in a proteasome reporter cell line (FIG. 1a). Levels of ^UbG76V-YFP accumulation were determined by flow cytometry and immunoblotting; immunoblot of ubiquitin conjugation in HCT-116 cells treated with b-AP15 (1 μM) or bortezomib (100 nM) (FIG. 1b). […] Immunoblot of ODC-1 levels in HCT-116 cells following treatment with bortezomib ([…] or b-Ap15 (1 μM) (FIG. 1d); values represent quantified optical density units of ODC-1 normalized to β-actin. Cell cycle profiles of b-AP15 treated HCT-116 cells (FIG. 1e); cells were analyzed by propidium iodide staining and flow cytometry. Levels of caspase activity in isogenic HCT-116 cells as determined by ELISA for caspase cleaved cytokeratin-18 (CK18-Asp398) following treatment with bortezomib (100 nM) or b-AP15 (1 μM) (**′P=0.01, ***′P=0.001) (FIG. 1f). […]
# [2] = tested on: HCT116 cells; assay type: cell-based; details: human
# Source text: These findings indicate that high molecular weight ubiquitin substrate complexes accumulating as a result of DUB inhibition can generate strong cytotoxicity that is insensitive to Bcl-2 over-expression. [table]
compound,measurement,setting,value
CC(C)C[C@H](NC(=O)[C@H](Cc1ccccc1)NC(=O)c1cnccn1)B(O)O [bortezomib],apoptosis: effect of genetic disruption of BAX or PUMA,[1],bortezomib-induced apoptosis is inhibited
same,Fold induction DNAJB1 (Hsp40B1) mRNA,[2],5 fold
same,Fold induction HSPA1B mRNA,[2],12 fold
same,Fold induction HSPA6 (Hsp70B′) mRNA,[2],60 fold
